Results from PubChem BioAssay (NCI).
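Cultured in 96-well plates, cells were exposed to test compound for 48 hours across five concentrations. TGI marks complete inhibition of growth.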

What was measured:
Experiment in all cases: NCI anticancer screen, dose series, 48 h
[1] = test system: HL-60(TB) leukemia
[2] = test system: MCF7 breast
[3] = test system: MOLT-4 leukemia
[4] = test system: PC-3 prostate
[5] = test system: COLO 205 colon
[6] = test system: ACHN renal
[7] = test system: HS 578T breast
[8] = test system: SK-OV-3 ovarian
[9] = test system: NCI-H522 lung
[10] = test system: SNB-19 CNS

Compound: Clc1ccc(/C=C/c2nc3ccccc3s2)cc1Cl
- TGI [1]: > 100 µM
- TGI [2]: > 100 µM
- TGI [3]: > 100 µM
- TGI [4]: 3.66 µM
- TGI [5]: > 100 µM
- TGI [6]: > 100 µM
- TGI [7]: 80.8 µM
- TGI [8]: > 100 µM
- TGI [9]: > 100 µM
- TGI [10]: > 100 µM
